According to article PMC9007951, “Systematically evaluating DOTATATE and FDG as PET immuno-imaging tracers of cardiovascular inflammation” (Scientific Reports, 2022):

Key:
[1] = Ex vivo autoradiography of heart and aorta; format: in vivo, mice; details: for ratio between the signal in infarcted and remote myocardium: MI mice, N = 4 per group
Experimental: Tissues (heart and aorta) were placed in a film cassette against a phosphorimaging plate (BASMS-2325, Fujifilm) at − 20 °C to determine the regional radioactivity distribution. Exposure time was optimized to dose, tracer, and tissue uptake differences. Tissues from the heart of [^18F]F-FDG injected animals were exposed for 5 min, [^18F]F-FDG infused aortas were exposed for 30 min and tissues from animals in the [^64Cu]Cu-DOTATATE group were exposed for 60 min. The plates were read at a pixel resolution of 25 μm with a Typhoon 7000IP plate reader (GE Healthcare, Pittsburgh, PA). Images were analyzed using ImageJ software v1.52 (Madison, WI).

atherosclerotic rabbits = experiment: In vivo PET/MR imaging of aortic inflammation in rabbits; design: species or system New Zealand White rabbits; details: for SUVmax abdominal aorta: PET/MRI, median
Excerpt: For the rabbit studies, 3 months old male New Zealand White (NZW) rabbits (N = 47) were purchased from Charles River Laboratories (Wilmington, MA). Randomly assigned control rabbits (N = 11) were kept on chow diet and imaged with PET/MR. Among these some animals were euthanized for biodistribution assays (N = 6) or used for time-activity characterization of aorta signal (N = 3). For the atherosclerosis model, remaining rabbits (N = 36) were placed on Western diet (initial 8 weeks on regular chow enriched with 0.3% cholesterol and 4.7% coconut oil, and the remaining time period on 0.15% enriched cholesterol diet from Research diets, Inc. Brunswick, NJ). In order to induce atherosclerotic lesions, these rabbits were subjected to two endothelial denudations of the aorta through the right and left femoral artery at 2 and 6 weeks after diet initiation, respectively, as described previously. Briefly, femoral artery angioplasty was performed under fluoroscopic guidance using a 4F-Fogarty embolectomy catheter. Once catheter is inserted, catheter is positioned in the thoracic descending aorta region. The balloon was then inflated to 2 atm. Catheter is then pulled back over the entire length of the aorta down to the iliac bifurcation, and the pullback procedure is repeated for two additional times. Catheter is then removed, and femoral artery is ligated. Rabbits with atherosclerosis were imaged 4 months after diet initiation (N = 36). Among these animals some were euthanized for ex vivo biodistribution analyses (N = 9), used for time-activity characterization of aorta signal (N = 3) or near infra-red imaging ([…]). The remaining atherosclerotic rabbits were fed a Western diet for an additional 3 months (N = 9) to advance atherosclerosis. At the end of the 3-month period, these rabbits were imaged and euthanized.
In vivo imaging in rabbits was performed on a 3 Tesla Biograph mMR (Siemens, Erlangen, Germany) Positron Emission Tomography/Magnetic Resonance Imaging (PET/MRI) clinical scanner. To establish the optimal imaging time-point for [^68Ga]Ga-DOTATATE aortic imaging in this animal model, 5 rabbits underwent dynamic PET imaging for 3 h immediately after injection of approximately 190 MBq of the tracer. Rabbits where injected intravenously via the ear vein with approximately 190 MBq of either [^18F]F- FDG or [^68Ga]Ga-DOTATATE. Rabbits undergoing [^18F]F-FDG scans were fasted for 3–4 h before injection to avoid tracer uptake in the bowels, as previously validated. […]
Using OsiriX v5.6 software (OsiriX Foundation, Geneva, Switzerland), regions of interest (ROIs) were drawn to determine organ radioactivity concentration. […]

[2] = Blood half-life of [^68Ga]Ga-DOTATATE, gamma counting of venous blood, two-phase decay fit; format: in vivo, New Zealand White rabbits
Experimental: Adopting a translational approach, the rabbit studies were performed with the [^68Ga]Ga-labeled tracer, which is already being used in the clinic. [^68Ga]Ga-DOTATATE was purchased from Advanced Accelerator Applications (AAA, Millburn, NJ, USA). To determine its pharmacokinetics, three atherosclerotic rabbits and two healthy controls were injected with approximately 190 MBq of [^68Ga]Ga-DOTATATE. Venous blood was sampled at 1, 5, 10, 15, 20, 30, 60, 120, 180, 240 and 300 min after injection through the ear vein. Samples were weighed and gamma counted. Blood half-life data were fitted using a two-phase decay non-linear regression using GraphPad Prism v8.4.3 (Supplementary Table S1). To investigate the tracer blood distribution, blood samples were centrifuged at 2000 g for 15 min at 4 °C to determine the radioactivity concentration in the plasma and cellular fractions. To analyze [^68Ga]Ga-DOTATATE biodistribution, all rabbits were euthanized after the last imaging time-point using an injection of pentobarbital 100 mg/kg and exsanguination of the portal vein. Rabbits were extensively perfused with 1000 mL of saline. Following, tissues (blood, heart, aorta, liver, kidney, skeletal muscle, small and large intestine, fat, stomach, pancreas and bladder) were harvested, weighed and gamma counted.

Row | SMILES | ratio between the signal in infarcted and remote myocardium [1] | signal in atherosclerotic plaques compared to healthy (no plaque) areas of the aorta ([1]; atherosclerotic mice, N = 4) | SUVmax abdominal aorta (atherosclerotic rabbits; athero4mo rabbits, circulation 120 min ([^68Ga]Ga-DOTATATE, N = 32) or 180 min ([^18F]F-FDG, N = 27)) | SUVmax abdominal aorta (atherosclerotic rabbits; athero7mo rabbits, N = 7) | SUVmax abdominal aorta (atherosclerotic rabbits; control rabbits, circulation 120 min ([^68Ga]Ga-DOTATATE, N = 10) or 180 min ([^18F]F-FDG, N = 11)) | %fast ([2]; athero4mo rabbits, N = 3) [%] | %slow ([2]; athero4mo rabbits, N = 3) [%] | Weighed t1/2 (weighted half-life) ([2]; athero4mo rabbits, N = 3) [min] | t1/2 fast ([2]; athero4mo rabbits, N = 3) [min] | t1/2 slow ([2]; athero4mo rabbits, N = 3) [min] | %fast ([2]; control rabbits, N = 2) [%] | %slow ([2]; control rabbits, N = 2) [%] | Weighed t1/2 (weighted half-life) ([2]; control rabbits, N = 2) [min] | t1/2 fast ([2]; control rabbits, N = 2) [min] | t1/2 slow ([2]; control rabbits, N = 2) [min] | change of tracer accumulation (SUVmax abdominal aorta) athero7mo vs athero4mo (atherosclerotic rabbits; rabbits kept on Western Diet for 7 months, paired analysis, N = 7, p > 0.9999)
1 | C[C@@H](O)[C@H](NC(=O)[C@@H]1CSSC[C@H](NC(=O)[C@@H](Cc2ccccc2)NC(=O)CN2CCN(CC(=O)O)CCN(CC(=O)O)CCN(CC(=O)O)CC2)C(=O)N[C@@H](Cc2ccc(O)cc2)C(=O)N[C@H](Cc2c[nH]c3ccccc23)C(=O)N[C@@H](CCCCN)C(=O)N[C@@H]([C@@H](C)O)C(=O)N1)C(=O)O [[^64Cu]Cu-DOTATATE, metal not drawn] | approximately 2 | twofold higher |  |  |  |  |  |  |  |  |  |  |  |  |  | 
2 | OC[C@H]1OC(O)[C@H]([18F])[C@@H](O)[C@@H]1O (some centres unmarked) [[^18F]F-FDG, [^18F]F-fluorodeoxyglucose] | ~1 |  | 0.446 | 0.515 | 0.349 |  |  |  |  |  |  |  |  |  |  | 
3 | C[C@@H](O)[C@H](NC(=O)[C@@H]1CSSC[C@H](NC(=O)[C@@H](Cc2ccccc2)NC(=O)CN2CCN(CC(=O)O)CCN(CC(=O)O)CCN(CC(=O)O)CC2)C(=O)N[C@@H](Cc2ccc(O)cc2)C(=O)N[C@H](Cc2c[nH]c3ccccc23)C(=O)N[C@@H](CCCCN)C(=O)N[C@@H]([C@@H](C)O)C(=O)N1)C(=O)O [[^68Ga]Ga-DOTATATE, metal not drawn] |  |  |  |  |  | 53.17 | 46.83 | 53.66 | 19.17 | 92.82 | 39.7 | 60.3 | 21.17 | 3.419 | 32.86 | did not detect a further increase in tracer accumulation
